# Source: US11492335B2, “Aryl or heteroaryl triazolone derivatives or salts thereof, or pharmaceutical compositions comprising the same” (YUHAN CORPORATION, priority 2018, dated 2022)
# Structures can show the parent of a compound that is named as a salt.
# Key:
# Assay type in all cases: biochemical
# recombinant human VAP-1 = biological target: T1, recombinant human VAP-1 (Homo sapiens, UniProt Q16853); assay: Activity on recombinant human VAP-1, Amplex Red HRP-coupled hydrogen peroxide assay, benzylamine substrate; conditions: recombinant human VAP-1, benzylamine substrate; read-out: Inhibitory Activity (IC50, nM) human VAP-1
# T1 construct: purchased R&D systems
# T1 sequence (Q16853 1-763): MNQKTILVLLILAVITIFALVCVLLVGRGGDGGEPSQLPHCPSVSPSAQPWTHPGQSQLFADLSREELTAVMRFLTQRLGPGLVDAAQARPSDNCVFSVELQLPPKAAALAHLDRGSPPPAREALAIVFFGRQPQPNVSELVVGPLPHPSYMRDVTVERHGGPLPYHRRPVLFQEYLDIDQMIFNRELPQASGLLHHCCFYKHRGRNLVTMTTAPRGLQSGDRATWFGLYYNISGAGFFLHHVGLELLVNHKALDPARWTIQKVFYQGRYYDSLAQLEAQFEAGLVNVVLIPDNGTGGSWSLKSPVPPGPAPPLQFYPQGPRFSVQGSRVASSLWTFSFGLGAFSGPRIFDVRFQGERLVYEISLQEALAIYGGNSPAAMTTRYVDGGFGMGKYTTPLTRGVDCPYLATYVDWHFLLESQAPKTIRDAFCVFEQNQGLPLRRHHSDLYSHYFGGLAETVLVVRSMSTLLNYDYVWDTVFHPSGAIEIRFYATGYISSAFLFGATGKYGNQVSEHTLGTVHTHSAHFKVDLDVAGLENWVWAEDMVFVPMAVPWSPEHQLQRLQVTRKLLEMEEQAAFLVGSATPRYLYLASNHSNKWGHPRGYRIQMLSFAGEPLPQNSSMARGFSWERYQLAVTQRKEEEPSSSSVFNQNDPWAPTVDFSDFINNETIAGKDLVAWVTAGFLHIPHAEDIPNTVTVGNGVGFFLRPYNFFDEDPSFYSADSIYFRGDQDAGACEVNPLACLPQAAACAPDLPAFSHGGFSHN
# Summary of the method: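 Enzyme in 50 mM sodium phosphate pH 7.4 preincubated with compound 30 min at 37 °C, then 1 mM benzylamine, 200 µM Amplex Red and 1 U/mL HRP added. H2O2-derived resorufin fluorescence (ex 544/em 590 nm) followed over 1–2 h; signal-rate decrease versus DMSO control, 8-point curve, four-parameter logistic IC50.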
# [1] = biological target: T2, recombinant human MAO-A (monoamine oxidase-A) (Homo sapiens, UniProt P21397); assay: Activity on recombinant human MAO-A, Amplex Red method, 0.5 mM tyramine substrate; conditions: 0.5 mM tyramine substrate, read-out: Inhibitory Activity (IC50, nM) MAO-A
# T2 construct: purchased Sigma-Aldrich
# T2 sequence (P21397 1-527): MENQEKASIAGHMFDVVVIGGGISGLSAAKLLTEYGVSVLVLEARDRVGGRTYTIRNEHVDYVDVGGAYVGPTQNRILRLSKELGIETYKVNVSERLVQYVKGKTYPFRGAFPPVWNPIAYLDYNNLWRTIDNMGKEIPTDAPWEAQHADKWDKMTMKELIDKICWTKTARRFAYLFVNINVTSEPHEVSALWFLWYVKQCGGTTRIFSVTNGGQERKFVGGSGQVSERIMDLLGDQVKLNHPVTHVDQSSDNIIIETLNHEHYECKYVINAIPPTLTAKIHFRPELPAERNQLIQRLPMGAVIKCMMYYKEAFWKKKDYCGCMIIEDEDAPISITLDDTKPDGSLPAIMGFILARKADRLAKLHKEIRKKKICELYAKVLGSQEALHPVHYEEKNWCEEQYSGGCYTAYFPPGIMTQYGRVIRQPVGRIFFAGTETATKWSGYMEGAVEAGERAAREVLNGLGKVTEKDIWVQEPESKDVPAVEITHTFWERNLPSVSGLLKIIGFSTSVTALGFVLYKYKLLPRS
# Summary of the method: (§1)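 Enzyme preincubated with compound 30 min at 37 °C in 50 mM sodium phosphate pH 7.4, final DMSO below 1%. Substrate was 0.5 mM tyramine for MAO-A and 1 mM benzylamine for MAO-B, with 200 uM Amplex Red and 1 U/mL HRP. H2O2-coupled resorufin fluorescence (ex 544/em 590) followed over 1–2 h; 8-point 4-parameter IC50.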
# [2] = biological target: T3, recombinant human MAO-B (monoamine oxidase-B) (Homo sapiens, UniProt P27338); assay: Activity on recombinant human MAO-B, Amplex Red method, 1 mM benzylamine substrate; conditions: 1 mM benzylamine substrate, read-out: Inhibitory Activity (IC50, nM) MAO-B
# T3 construct: purchased Sigma-Aldrich
# T3 sequence (P27338 1-520): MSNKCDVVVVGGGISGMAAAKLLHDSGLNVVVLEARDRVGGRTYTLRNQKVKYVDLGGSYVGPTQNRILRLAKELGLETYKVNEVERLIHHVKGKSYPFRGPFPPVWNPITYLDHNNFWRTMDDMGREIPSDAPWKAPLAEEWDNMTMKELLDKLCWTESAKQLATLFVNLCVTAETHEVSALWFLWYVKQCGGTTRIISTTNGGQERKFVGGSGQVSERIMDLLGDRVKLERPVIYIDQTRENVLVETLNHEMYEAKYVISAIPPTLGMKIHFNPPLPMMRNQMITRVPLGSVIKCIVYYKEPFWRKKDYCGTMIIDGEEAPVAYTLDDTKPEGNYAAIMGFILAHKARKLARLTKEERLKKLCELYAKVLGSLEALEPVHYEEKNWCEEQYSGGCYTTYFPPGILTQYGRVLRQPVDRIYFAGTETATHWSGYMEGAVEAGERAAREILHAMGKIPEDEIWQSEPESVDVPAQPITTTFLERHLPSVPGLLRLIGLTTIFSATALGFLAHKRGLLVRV
# Summary of the method: as §1
# [3] = biological target: T4, recombinant human DAO (diamine oxidase) (Homo sapiens, UniProt P19801); assay: Activity on recombinant human DAO, Amplex Red method, 1 mM putrescine substrate; conditions: recombinant human DAO, 1 mM putrescine substrate; read-out: Inhibitory Activity (IC50, nM) DAO
# T4 construct: purchased R&D systems
# T4 sequence (P19801 20-751): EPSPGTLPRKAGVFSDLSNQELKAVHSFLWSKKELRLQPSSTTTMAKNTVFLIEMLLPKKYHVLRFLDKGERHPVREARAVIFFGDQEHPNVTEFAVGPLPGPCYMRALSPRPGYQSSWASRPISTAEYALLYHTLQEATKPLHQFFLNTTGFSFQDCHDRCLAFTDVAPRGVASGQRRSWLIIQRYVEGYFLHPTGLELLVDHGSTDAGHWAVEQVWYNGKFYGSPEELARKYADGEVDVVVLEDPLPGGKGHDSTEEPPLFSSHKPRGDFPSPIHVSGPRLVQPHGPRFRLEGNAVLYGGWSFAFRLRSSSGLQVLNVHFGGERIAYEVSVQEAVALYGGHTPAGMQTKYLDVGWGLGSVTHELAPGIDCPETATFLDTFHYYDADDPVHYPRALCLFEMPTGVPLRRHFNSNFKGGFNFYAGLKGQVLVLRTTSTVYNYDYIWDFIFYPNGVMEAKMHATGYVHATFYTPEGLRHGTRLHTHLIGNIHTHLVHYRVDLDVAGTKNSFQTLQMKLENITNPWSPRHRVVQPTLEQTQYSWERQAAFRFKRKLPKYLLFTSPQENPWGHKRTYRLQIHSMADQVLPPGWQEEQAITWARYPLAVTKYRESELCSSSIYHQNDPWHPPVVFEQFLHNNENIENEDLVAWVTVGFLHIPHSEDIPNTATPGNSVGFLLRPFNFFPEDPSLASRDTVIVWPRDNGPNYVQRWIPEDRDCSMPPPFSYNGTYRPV
# Summary of the method: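 Inhibition of recombinant human DAO (diamine oxidase, R&D systems) was assessed with the Amplex Red Hydrogen Peroxide Assay Kit. Hydrogen peroxide produced from 1 mM putrescine was detected through an HRP-coupled reaction that converts Amplex Red into fluorescent resorufin, read at 544 nm excitation and 590 nm emission. IC50 values came from four-parameter logistic fits in GraphPad Prism.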
Compound,IC50 (recombinant human VAP-1),IC50 [1],IC50 [2],IC50 [3]
"Cc1ccc(-c2ccc(C(=O)N3CCOCC3)cc2)nc1-n1cnn(C/C(=C/F)CN)c1=O [Example 211, 2-[(2E)-2-(aminomethyl)-3-fluoroprop-2-en-1-yl]-4-{3-methyl-6-[4-(morpholin-4-ylcarbonyl)phenyl]pyridin-2-yl}-2,4-dihydro-3H-1,2,4-triazol-3-one hydrochloride]",49 nM,> 100000 nM,> 10000 nM,3500 nM
"COc1ccc(-c2ccc(C)c(-n3cnn(C/C(=C/F)CN)c3=O)n2)cn1 [Example 212, 2-[(2E)-2-(aminomethyl)-3-fluoroprop-2-en-1-yl]-4-(6′-methoxy-5-methyl-2,3′-bipyridin-6-yl)-2,4-dihydro-3H-1,2,4-triazol-3-one hydrochloride]",45 nM,> 100000 nM,> 10000 nM,2200 nM
"Cc1ccc(-c2ccc3c(c2)OCO3)nc1-n1cnn(C/C(=C/F)CN)c1=O [Example 213, 2-[(2E)-2-(aminomethyl)-3-fluoroprop-2-en-1-yl]-4-[6-(1,3-benzodioxol-5-yl)-3-methylpyridin-2-yl]-2,4-dihydro-3H-1,2,4-triazol-3-one hydrochloride]",29 nM,> 100000 nM,> 10000 nM,1800 nM
"Cc1ccc(-c2ccc3cn[nH]c3c2)nc1-n1cnn(C/C(=C/F)CN)c1=O [Example 214, 2-[(2E)-2-(aminomethyl)-3-fluoroprop-2-en-1-yl]-4-[6-(1H-indazol-6-yl)-3-methylpyridin-2-yl]-2,4-dihydro-3H-1,2,4-triazol-3-one hydrochloride]",23 nM,> 100000 nM,> 100000 nM,1400 nM
"Cc1ccc(-c2cc(C)c3c(c2)CCC(=O)N3)nc1-n1cnn(C/C(=C/F)CN)c1=O [Example 215, 6-(6-{1-[(2E)-2-(aminomethyl)-3-fluoroprop-2-en-1-yl]-5-oxo-1,5-dihydro-4H-1,2,4-triazol-4-yl}-5-methylpyridin-2-yl)-8-methyl-3,4-dihydroquinolin-2(1H)-one hydrochloride]",14 nM,96000 nM,3500 nM,290 nM
"Cc1ccc(-c2ccc3c(c2)NC(=O)CO3)nc1-n1cnn(C/C(=C/F)CN)c1=O [Example 216, 6-(6-{1-[(2E)-2-(aminomethyl)-3-fluoroprop-2-en-1-yl]-5-oxo-1,5-dihydro-4H-1,2,4-triazol-4-yl}-5-methylpyridin-2-yl)-2H-1,4-benzoxazin-3 (4H)-one hydrochloride]",88 nM,> 100000 nM,> 10000 nM,4200 nM
"CS(=O)(=O)c1ccc(-c2cnc(-n3cnn(C/C(=C/F)CN)c3=O)cn2)cc1 [Example 217, 2-[(2E)-2-(aminomethyl)-3-fluoroprop-2-en-1-yl]-4-{5-[4-(methylsulfonyl)phenyl]pyrazin-2-yl}-2,4-dihydro-3H-1,2,4-triazol-3-one]",2.2 nM,> 100000 nM,110 nM,< 100 nM
"NC/C(=C\F)Cn1ncn(-c2cnc(-c3ccc(-c4nc[nH]n4)cc3)cn2)c1=O [Example 218, 2-[(2E)-2-(aminomethyl)-3-fluoroprop-2-en-1-yl]-4-{5-[4-(1H-1,2,4-triazol-3-yl)phenyl]pyrazin-2-yl}-2,4-dihydro-3H-1,2,4-triazol-3-one]",1.9 nM,> 100000 nM,49 nM,< 100 nM
"NC/C(=C\F)Cn1ncn(-c2cnc(-c3cccc(-c4nc[nH]n4)c3)cn2)c1=O [Example 219, 2-[(2E)-2-(aminomethyl)-3-fluoroprop-2-en-1-yl]-4-{5-[3-(1H-1,2,4-triazol-3-yl)phenyl]pyrazin-2-yl}-2,4-dihydro-3H-1,2,4-triazol-3-one]",2.3 nM,> 100000 nM,41 nM,< 100 nM
"CC(=O)Nc1cc(-c2cnc(-n3cnn(C/C(=C/F)CN)c3=O)cn2)ccn1 [Example 220, N-[4-(5-{1-[(2E)-2-(aminomethyl)-3-fluoroprop-2-en-1-yl]-5-oxo-1,5-dihydro-4H-1,2,4-triazol-4-yl}pyrazin-2-yl)pyridin-2-yl]acetamide]",1.8 nM,> 100000 nM,396 nM,< 100 nM
"NC/C(=C\F)Cn1ncn(-c2cnc(-c3ccc(N4CCOCC4)nc3)cn2)c1=O [Example 221, 2-[(2E)-2-(aminomethyl)-3-fluoroprop-2-en-1-yl]-4-{5-[6-(morpholin-4-yl)pyridin-3-yl]pyrazin-2-yl}-2,4-dihydro-3H-1,2,4-triazol-3-one]",1.9 nM,> 100000 nM,650 nM,< 100 nM
"NC/C(=C\F)Cn1ncn(-c2cnc(-c3ccc4nonc4c3)cn2)c1=O [Example 222, 2-[(2E)-2-(aminomethyl)-3-fluoroprop-2-en-1-yl]-4-[5-(2,1,3-benzooxadiazol-5-yl)pyrazin-2-yl]-2,4-dihydro-3H-1,2,4-triazol-3-one]",0.94 nM,770 nM,22 nM,< 100 nM
